Where two headings read alike, the source gives them in different places.
Key:
[1] = molecular target: NC(11-55) (Human immunodeficiency virus type 1, UniProt P12493); experiment: NC inhibition assay (NC-induced cTAR DNA destabilization, fluorescence); format: biochemical, HIV-1; settings: for inhibition at 100 µM: single point screening, positive = >25% inhibition at 100µM
Source text: The NC inhibition assay is based on the nucleic acid chaperone activity of the NC protein. NC destabilizes the secondary structure of cTAR DNA, the complementary sequence of the transactivation response element, which is involved in minus-strand DNA transfer during reverse transcription. In the assay, the cTAR sequence from the HIV-1 Mal strain (Bernacchi et al, J Mol Biol, 2002) is labeled with a dye (Alexa488 fluorophore) and a quencher 4-(4'-dimethylaminophenylazo)benzoic acid (Dabcyl) at its 5' and 3' ends, respectively. In the absence of destabilization, the close proximity of both cTAR ends results in a strong fluorescence quenching of the dye emission by the Dabcyl group. NC(11-55) added to cTAR at a ratio of 10 NC/cTAR melts the bottom of the cTAR stem, which increases the distance between the dye and the quencher and as a result increases the dye fluorescence signal [Shvadchak et al, (2009) Identification by high throughput screening of small compounds inhibiting the nucleic acid destabilization activity of the HIV-1 nucleocapsid protein. Biochimie, 916-923]. NCIs are expected to prevent the NC-induced destabilization of cTAR and thus reverse the NC-induced increase in the fluorescence of the labeled cTAR. The activity of the inhibitor is thus evaluated from the ratio of the fluorescence intensity observed in the presence of NC with the molecule to the one in the absence of the compound.
The doubly labelled cTAR DNA oligonucleotides (55nt) were synthesised and purified by IBA GmbH Nucleic Acids Product Supply (Göttingen, Germany). Extinction coefficient at 260 nm of 5.73 x 10^5 M^-1 cm^-1 was used to determine the concentration of cTAR.
The NC(11-55) peptide (Avilov et al, Antimicrob Agents Chemother, 2012) was synthesized by solid-phase peptide synthesis on a 433A synthesizer (ABI, Foster City, CA) as previously described [De Rocquigny H, (1991) First large scale chemical synthesis of the 72 amino acid HIV-1 nucleocapsid protein NCp7 in an active form. Biochem Biophys Res Commun., 1010-1018]. The peptide was stored lyophilized and was resuspended in water before use. The concentration of peptide was determined by using an extinction coefficient of 5.7 x 10^3 M^-1 cm^-1 at 280 nm. Next, 2.5 molar equivalents of ZnSO4 were added and pH was raised to its final value by adding buffer.
All experiments were performed at 20 °C in 25 mM Tris-HCl (pH 7.5), 30 mM NaCl, and 0.2 mM MgCl2. To evaluate the inhibition activity of compounds on NC-induced cTAR destabilization, cTAR DNA (0.1 µM) was preincubated with 1 µM NC(11-55) (molar ratio NC:cTAR = 10:1) for 15 min at room temperature before addition of compound. For single point screening, all compounds were tested at three final concentrations: 1 µM, 10 µM and 100 µM. For the IC50 determination, inhibition of NC-induced cTAR melting was monitored through addition of increasing concentrations of the selected molecules to the pre-formed NC(11-55)-cTAR complex. After the addition of compound, the mixture was incubated for 15 min at room temperature before the reading. The fluorescence signal was recorded with a plate reader Xenius (SAFAS Monaco) or Fluoromax 3 spectrofluorometer (Horiba Jobin-Yvon), and the excitation and emission wavelengths were 480 and 520 nm, respectively. The spectra were corrected for dilution, buffer fluorescence and screening effect (when it was required). In order to check the occurrence of aggregation, we performed additional reading of absorption with the plate reader Xenius (SAFAS Monaco) or Cary 4000 spectrophotometer (Agilent). […]

[2] = test system: Peripheral blood mononuclear cells (PBMC); format: cell-based; settings: human, 7 days
Experimental: Peripheral blood mononuclear cells (PBMC) obtained from healthy donors by separation over Ficoll-Hypaque (GEHealthear-Cat.# GEH17-1440-02) were suspended at 2x10^6 cells/mL in RPMI 1640 (Biowest-Cat.#L0501-500) supplemented with 10% of heat-inactivated sterile fetal bovine serum (Gibco-Cat.#10270-106), 2 mmol/l L-glutamine (Biowest-Cat.#X0550-100), 50 U/mL Penicillin-50 µg/mL Streptomycin (Biowest-Cat.#L0022-100), referred to as complete medium (CM). PBMC were supplemented with 5 µg/mL of phytohaemagglutinin (Sigma Aldr-Cat.#L1668) and cultured in 75 cm^2 flasks (Sarsted-Cat.#833.911.002) for 2 days at 37 °C in a humidified atmosphere with 5% CO2.
PBMC were then washed in CM, counted by trypan blue exclusion (Gibco-Cat. #15250-061), centrifuged and suspended in fresh CM supplemented with 20 IU/mL recombinant human IL-2 (Miltenyi Biotec-Cat.#130-097-748) and seeded in a 96-well-tissue culture plate (Sarsted-Ca#831.837) at the density of 5x10^5 cells/mL (or 1x10^5 cells in 200 µL final CM volume per well). Cells were left untreated (negative control) or treated with different concentrations of the compounds.
After 7 days of incubation cytotoxicity was determined using Promega's CellTiter 96(R) AQueous One Solution Cell Proliferation Assay (MTS assay) (Promega-Cat.#G3581) according to the manufacturer's instuctions. This is a colorimetric method for determining the number of viable cells in proliferation or cytotoxicity assays. The MTS tetrazolium compound is bioreduced by cells into a colored formazan product that is soluble in tissue culture medium. This conversion is presumably accomplished by NADPH or NADH produced by dehydrogenase enzymes in metabolically active cells.
Briefly, MTS solution was thawed at room temperature, or in a water bath at 37 °C and 40 µL of MTS solution was pipeted into each well of the 96-well assay plate containing the samples in 200 µL of culture medium and incubated at 37 °C, 5% CO2 for 4 hours. The optical density was read at 490 nm using a 96-well plate reader (Tecan Infinite F50) and TD50 (toxic dose 50%, dose killing 50% of the cells compared to untreated control) value was calculated by interpolation of the curve obtained by plotting dose against percent mortality and by using "Magellan data analysis software". CM alone plus MTS solution was used as a blank, and cell culture well without compound was used as a cellular control.

[3] = cTAR DNA 0.1 µM, 1 µM NC(11-55), 20 °C, pH 7.5, read-out: NC inhibition IC50

SMILES | IC50 [1] [µM] | inhibition at 100 µM [1] [%] | Proliferation assay PBMC TD50 [2] [µM] | IC50 [1, 3] [µM]
O=C(NCC1CCCCC1)c1nc(-c2ccccn2)nc(O)c1O [Compound 1, N-(cyclohexylmethyl)-5,6-dihydroxy-2-(pyridin-2-yl)pyrimidine-4-carboxamide] | 167 | > 25 | 2.6 | –
O=C(OCC1CCCCC1)c1nc(-c2ccccn2)nc(O)c1O [Compound 2, cyclohexylmethyl 5,6-dihydroxy-2-(pyridin-2-yl)pyrimidine-4-carboxylate] | 74 | > 25 | 6 | –
O=C(NCC1CC1)c1nc(-c2ccccn2)nc(O)c1O [Compound 3, N-(cyclopropylmethyl)-5,6-dihydroxy-2-(pyridin-2-yl)pyrimidine-4-carboxamide] | 390 | > 25 | 6 | –
O=C(NC1CCCCC1)c1nc(-c2ccccn2)nc(O)c1O [Compound 4, N-cyclohexyl-5,6-dihydroxy-2-(pyridin-2-yl)pyrimidine-4-carboxamide] | 320 | > 25 | 4.8 | –
C[C@@H](NC(=O)c1nc(-c2ccccn2)nc(O)c1O)C1CCCCC1 [Compound 5, (R)-N-(1-cyclohexylethyl)-5,6-dihydroxy-2-(pyridin-2-yl)pyrimidine-4-carboxamide] | 42.5 | > 25 | 3 | –
O=C(NCCC1CCCCC1)c1nc(-c2ccccn2)nc(O)c1O [Compound 6, N-(2-cyclohexylethyl)-5,6-dihydroxy-2-(pyridin-2-yl)pyrimidine-4-carboxamide] | 37.5 | > 25 | 10.48 | –
CN1CCCC(CNC(=O)c2nc(-c3ccccn3)nc(O)c2O)C1 (centres unmarked) [Compound 7, 5,6-dihydroxy-N-((1-methylpiperidin-3 - yl)methyl)-2-(pyridin-2-yl)pyrimidine-4-carboxamide] | 335 | > 25 | >50 | –
O=C(NCCCC1CCCCC1)c1nc(-c2ccccn2)nc(O)c1O [Compound 8, N-(3-cyclohexylpropyl)-5,6-dihydroxy-2-(pyridin-2-yl)pyrimidine-4-carboxamide] | 27.5 | > 25 | 2 | –
Cc1cccnc1-c1nc(O)c(O)c(C(=O)OCC2CCCCC2)n1 [Compound 10, cyclohexylmethyl 5,6-dihydroxy-2-(3-methylpyridin-2-yl)pyrimidine-4-carboxylate] | 55 | > 25 | 8.1 | –
Cc1cccnc1-c1nc(O)c(O)c(C(=O)NCC2CCCCC2)n1 [Compound 11, N-(cyclohexylmethyl)-5,6-dihydroxy-2-(3-methylpyridin-2-yl)pyrimidine-4-carboxamide] | 14.3 | > 25 | 8.7 | –
O=C(OCCC1CCCCC1)c1nc(-c2ccccn2)nc(O)c1O [Compound 12, 2-cyclohexylethyl 5,6-dihydroxy-2-(pyridin-2-yl)pyrimidine-4-carboxylate] | 57.5 | > 25 | 4 | –
O=C(OC1CCCCC1)c1nc(-c2ccccn2)nc(O)c1O [Compound 13, cyclohexyl 5,6-dihydroxy-2-(pyridin-2-yl)pyrimidine-4-carboxylate] | 237 | > 25 | 16.3 | –
O=C(OCCCC1CCCCC1)c1nc(-c2ccccn2)nc(O)c1O [Compound 14, 3-cyclohexylpropyl 5,6-dihydroxy-2-(pyridin-2-yl)pyrimidine-4-carboxylate] | 27.5 | > 25 | 5.6 | –
O=C(OCC1CCCCC1)c1nc(-c2ncccc2Cl)nc(O)c1O [Compound 15, cyclohexylmethyl 2-(3-chloropyridin-2-yl)-5,6-dihydroxypyrimidine-4-carboxylate] | – | > 25 | 25 | –
O=C(NCC1CCCCC1)c1nc(-c2ncccc2Cl)nc(O)c1O [Compound 16, 2-(3-chloropyridin-2-yl)-N-(cyclohexylmethyl)-5,6-dihydroxypyrimidine-4-carboxamide] | – | > 25 | 5.7 | –
CC(OC(=O)c1nc(-c2ccccn2)nc(O)c1O)C1CCCCC1 (centres unmarked) [Compound 17, 1-cyclohexylethyl 5,6-dihydroxy-2-(pyridin-2-yl)pyrimidine-4-carboxylate] | 90 | > 25 | 5.5 | –
Cc1cccc(-c2nc(O)c(O)c(C(=O)N[C@H](C)C3CCCCC3)n2)n1 [Compound 18, (R)-N-(1-cyclohexylethyl)-5,6-dihydroxy-2-(6-methylpyridin-2-yl)pyrimidine-4-carboxamide] | 20 | > 25 | 2.4 | –
Cc1ccnc(-c2nc(O)c(O)c(C(=O)N[C@H](C)C3CCCCC3)n2)c1 [Compound 19, (R)-N-(1-cyclohexylethyl)-5,6-dihydroxy-2-(4-methylpyridin-2-yl)pyrimidine-4-carboxamide] | 8.5 | > 25 | 3.075 | –
C[C@@H](NC(=O)c1nc(-c2ccc(CO)cn2)nc(O)c1O)C1CCCCC1 [Compound 55, (R)-N-(1-cyclohexylethyl)-5,6-dihydroxy-2-(5-(hydroxymethyl)pyridin-2-yl)pyrimidine-4-carboxamide] | – | > 25 | – | 40
C[C@H](NC(=O)c1nc(-c2nccc3[nH]ccc23)nc(O)c1O)C1CCCCC1 [Compound 86, (S)-N-(1-cyclohexylethyl)-5,6-dihydroxy-2-(1H-pyrrolo[3,2-c]pyridin-4-yl)pyrimidine-4-carboxamide] | – | > 25 | – | 5.5

— patent EP3290412A1, “HIV-1 NUCLEOCAPSID INHIBITORS” (Università degli Studi di Siena, priority 2016, dated 2018)
